Test results as given in article PMC11855355, “In-Situ Purification of Non-Ribosomal Peptide Synthetases Assembly Line for Structural and Biochemical Studies” (International Journal of Molecular Sciences, 2025).

Target: T1, PvdL (Pseudomonas putida, UniProt Q88F56)
T1 construct: monomer
Assay: LC/HRMS of product N-myristoyl-L-glutamic acid after base hydrolysis
Format: biochemical
Settings: 1 uM PvdL, 200 uM myristic acid, 1 mM L-Glu, 5 mM ATP, 10 mM MgCl2, pH 7.6, 25 °C; first two modules; product covalent on PvdL

T1 sequence (Q88F56 1-4317): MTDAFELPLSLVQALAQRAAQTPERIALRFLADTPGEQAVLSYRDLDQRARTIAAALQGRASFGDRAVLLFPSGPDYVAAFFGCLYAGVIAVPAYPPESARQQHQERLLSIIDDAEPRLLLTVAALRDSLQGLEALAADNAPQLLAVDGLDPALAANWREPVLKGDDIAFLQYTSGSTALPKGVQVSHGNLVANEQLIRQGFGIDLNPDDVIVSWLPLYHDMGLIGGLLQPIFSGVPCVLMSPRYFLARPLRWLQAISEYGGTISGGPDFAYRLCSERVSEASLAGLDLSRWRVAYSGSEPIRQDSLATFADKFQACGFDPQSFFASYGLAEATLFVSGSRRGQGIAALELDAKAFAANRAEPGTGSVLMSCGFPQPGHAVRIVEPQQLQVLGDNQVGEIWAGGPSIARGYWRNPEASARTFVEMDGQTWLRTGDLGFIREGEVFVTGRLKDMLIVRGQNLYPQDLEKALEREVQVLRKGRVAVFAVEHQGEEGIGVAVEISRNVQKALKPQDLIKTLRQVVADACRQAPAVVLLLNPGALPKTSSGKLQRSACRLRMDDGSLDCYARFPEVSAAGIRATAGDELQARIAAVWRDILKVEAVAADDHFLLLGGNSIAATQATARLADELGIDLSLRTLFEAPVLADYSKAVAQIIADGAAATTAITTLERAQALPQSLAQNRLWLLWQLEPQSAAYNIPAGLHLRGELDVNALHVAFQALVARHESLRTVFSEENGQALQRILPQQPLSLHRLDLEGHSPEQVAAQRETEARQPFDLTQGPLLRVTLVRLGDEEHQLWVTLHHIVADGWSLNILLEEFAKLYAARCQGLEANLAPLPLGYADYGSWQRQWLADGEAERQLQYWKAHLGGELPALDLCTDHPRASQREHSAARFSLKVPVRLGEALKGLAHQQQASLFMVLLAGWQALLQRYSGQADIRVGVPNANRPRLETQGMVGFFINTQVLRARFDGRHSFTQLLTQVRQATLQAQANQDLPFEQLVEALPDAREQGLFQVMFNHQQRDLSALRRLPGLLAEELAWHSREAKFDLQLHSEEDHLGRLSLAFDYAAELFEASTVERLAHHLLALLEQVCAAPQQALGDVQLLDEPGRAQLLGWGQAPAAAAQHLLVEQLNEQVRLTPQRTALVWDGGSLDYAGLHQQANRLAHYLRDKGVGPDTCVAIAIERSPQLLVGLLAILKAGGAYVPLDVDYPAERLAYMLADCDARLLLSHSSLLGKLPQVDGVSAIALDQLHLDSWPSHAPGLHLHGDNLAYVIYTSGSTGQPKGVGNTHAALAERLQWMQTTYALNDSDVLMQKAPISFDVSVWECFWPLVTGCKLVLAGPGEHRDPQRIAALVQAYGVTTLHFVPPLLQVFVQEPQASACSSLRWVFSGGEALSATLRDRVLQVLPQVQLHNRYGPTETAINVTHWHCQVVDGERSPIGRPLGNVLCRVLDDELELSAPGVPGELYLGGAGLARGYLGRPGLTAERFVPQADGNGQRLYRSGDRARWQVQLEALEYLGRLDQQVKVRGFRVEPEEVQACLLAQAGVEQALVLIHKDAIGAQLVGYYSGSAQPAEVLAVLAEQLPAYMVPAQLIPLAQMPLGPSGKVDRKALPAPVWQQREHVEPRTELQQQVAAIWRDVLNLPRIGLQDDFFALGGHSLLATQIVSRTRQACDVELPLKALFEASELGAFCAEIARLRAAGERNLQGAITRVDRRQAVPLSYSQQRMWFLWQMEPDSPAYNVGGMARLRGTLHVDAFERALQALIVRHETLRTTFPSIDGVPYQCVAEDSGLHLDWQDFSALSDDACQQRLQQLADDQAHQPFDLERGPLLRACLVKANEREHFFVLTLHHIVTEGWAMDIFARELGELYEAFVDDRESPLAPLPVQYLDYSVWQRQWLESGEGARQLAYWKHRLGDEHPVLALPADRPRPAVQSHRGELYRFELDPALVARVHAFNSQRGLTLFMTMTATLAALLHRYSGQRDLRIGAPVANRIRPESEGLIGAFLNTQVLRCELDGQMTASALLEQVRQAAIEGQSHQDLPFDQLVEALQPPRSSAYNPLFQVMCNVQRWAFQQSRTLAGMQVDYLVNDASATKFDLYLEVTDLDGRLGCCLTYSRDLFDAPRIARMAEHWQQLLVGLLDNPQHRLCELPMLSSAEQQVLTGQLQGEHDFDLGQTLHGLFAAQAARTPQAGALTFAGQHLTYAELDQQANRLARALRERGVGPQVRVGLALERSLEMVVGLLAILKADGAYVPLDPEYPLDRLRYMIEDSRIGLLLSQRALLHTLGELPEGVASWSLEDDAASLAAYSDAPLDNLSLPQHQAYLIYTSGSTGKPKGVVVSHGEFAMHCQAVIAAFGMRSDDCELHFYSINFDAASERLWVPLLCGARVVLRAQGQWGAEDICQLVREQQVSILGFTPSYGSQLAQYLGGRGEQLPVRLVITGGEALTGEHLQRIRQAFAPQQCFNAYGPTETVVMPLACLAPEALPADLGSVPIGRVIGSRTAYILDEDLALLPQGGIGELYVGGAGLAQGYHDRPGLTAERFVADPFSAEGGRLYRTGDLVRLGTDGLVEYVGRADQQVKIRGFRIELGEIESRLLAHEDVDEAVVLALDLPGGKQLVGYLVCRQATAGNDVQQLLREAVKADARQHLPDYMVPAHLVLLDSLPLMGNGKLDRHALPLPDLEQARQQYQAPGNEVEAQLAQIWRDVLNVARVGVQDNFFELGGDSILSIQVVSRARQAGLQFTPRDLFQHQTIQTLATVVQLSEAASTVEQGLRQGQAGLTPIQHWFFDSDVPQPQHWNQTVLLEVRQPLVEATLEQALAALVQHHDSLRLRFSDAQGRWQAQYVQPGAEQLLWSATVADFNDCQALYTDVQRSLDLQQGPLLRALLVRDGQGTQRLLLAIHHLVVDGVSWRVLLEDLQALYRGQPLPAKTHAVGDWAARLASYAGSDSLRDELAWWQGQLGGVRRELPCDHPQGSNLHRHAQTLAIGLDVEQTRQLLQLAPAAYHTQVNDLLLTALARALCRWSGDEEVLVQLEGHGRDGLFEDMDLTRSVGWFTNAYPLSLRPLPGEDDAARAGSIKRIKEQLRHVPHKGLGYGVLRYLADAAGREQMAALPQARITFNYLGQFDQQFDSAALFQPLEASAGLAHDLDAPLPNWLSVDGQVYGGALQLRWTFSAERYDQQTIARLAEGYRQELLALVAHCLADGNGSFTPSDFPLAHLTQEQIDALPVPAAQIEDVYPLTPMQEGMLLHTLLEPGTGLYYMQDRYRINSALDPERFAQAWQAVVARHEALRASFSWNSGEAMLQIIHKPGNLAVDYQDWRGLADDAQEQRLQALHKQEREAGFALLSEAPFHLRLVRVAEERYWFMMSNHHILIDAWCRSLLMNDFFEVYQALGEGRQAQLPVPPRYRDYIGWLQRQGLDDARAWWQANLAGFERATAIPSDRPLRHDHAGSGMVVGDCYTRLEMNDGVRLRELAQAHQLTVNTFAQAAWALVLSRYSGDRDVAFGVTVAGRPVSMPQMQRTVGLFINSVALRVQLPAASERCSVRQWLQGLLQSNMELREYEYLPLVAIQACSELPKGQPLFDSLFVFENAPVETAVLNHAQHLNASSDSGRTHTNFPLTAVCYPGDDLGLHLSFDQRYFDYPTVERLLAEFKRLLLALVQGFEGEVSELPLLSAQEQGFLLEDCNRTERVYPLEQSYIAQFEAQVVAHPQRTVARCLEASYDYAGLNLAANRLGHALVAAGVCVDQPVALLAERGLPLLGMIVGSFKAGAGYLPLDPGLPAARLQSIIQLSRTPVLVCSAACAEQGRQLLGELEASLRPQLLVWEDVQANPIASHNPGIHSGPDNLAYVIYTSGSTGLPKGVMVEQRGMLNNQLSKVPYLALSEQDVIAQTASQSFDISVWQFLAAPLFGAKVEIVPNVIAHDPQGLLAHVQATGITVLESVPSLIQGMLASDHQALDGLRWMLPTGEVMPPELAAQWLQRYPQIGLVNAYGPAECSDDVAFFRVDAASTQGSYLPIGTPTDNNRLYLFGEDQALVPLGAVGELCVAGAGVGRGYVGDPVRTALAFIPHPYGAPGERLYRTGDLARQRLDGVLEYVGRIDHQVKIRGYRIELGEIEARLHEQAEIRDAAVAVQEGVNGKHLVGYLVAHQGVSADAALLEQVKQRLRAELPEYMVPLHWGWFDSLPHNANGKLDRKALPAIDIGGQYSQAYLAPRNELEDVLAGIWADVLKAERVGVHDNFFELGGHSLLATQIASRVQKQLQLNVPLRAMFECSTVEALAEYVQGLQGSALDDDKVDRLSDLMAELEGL

N[C@@H](CCC(=O)O)C(=O)O [L-Glu]
LC/HRMS of product N-myristoyl-L-glutamic acid after base hydrolysis: ATP-energy-dependent activation and condensation of myristic acid and glutamic acid
